Assay results: patent US7943619B2, “Isoxazolo-pyridazine derivatives” (priority 2007, dated 2011)

Molecular target: human GABA A receptor α5β3γ2 (α5 subunit) (Homo sapiens, UniProt P18507+P31644)
Assay: biochemical
Assay type: binding
Conditions: competition for [3H]flumazenil binding, HEK293 cells transiently expressing human receptors; means of two determinations; read-out: hKi
Method: The affinity of compounds at GABA A receptor subtypes was measured by competition for [3H]flumazenil (85 Ci/mmol; Roche) binding to HEK293 cells expressing rat (stably transfected) or human (transiently transfected) receptors of composition α1β3γ2, α2β3γ2, α3β3γ2 and α5β3γ2.
Cell pellets were suspended in Krebs-tris buffer (4.8 mM KCl, 1.2 mM CaCl2, 1.2 mM MgCl2, 120 mM NaCl, 15 mM Tris; pH 7.5; binding assay buffer), homogenized by polytron for ca. 20 sec on ice and centrifuged for 60 min at 4° C. (50000 g; Sorvall, rotor: SM24=20000 rpm). The cell pellets were resuspended in Krebs-tris buffer and homogenized by polytron for ca. 15 sec on ice. Protein was measured (Bradford method, Bio-Rad) and aliquots of 1 mL were prepared and stored at −80° C.
Assays were incubated to equilibrium for 1 hour at 4° C. and harvested onto GF/C uni-filters (Packard) by filtration using a Packard harvester and washing with ice-cold wash buffer (50 mM Tris; pH 7.5). After drying, filter-retained radioactivity was detected by liquid scintillation counting. Ki values were calculated using Excel-Fit (Microsoft) and are the means of two determinations.

Chain of human GABA A receptor α5β3γ2 (α5 subunit) (P31644 32-462): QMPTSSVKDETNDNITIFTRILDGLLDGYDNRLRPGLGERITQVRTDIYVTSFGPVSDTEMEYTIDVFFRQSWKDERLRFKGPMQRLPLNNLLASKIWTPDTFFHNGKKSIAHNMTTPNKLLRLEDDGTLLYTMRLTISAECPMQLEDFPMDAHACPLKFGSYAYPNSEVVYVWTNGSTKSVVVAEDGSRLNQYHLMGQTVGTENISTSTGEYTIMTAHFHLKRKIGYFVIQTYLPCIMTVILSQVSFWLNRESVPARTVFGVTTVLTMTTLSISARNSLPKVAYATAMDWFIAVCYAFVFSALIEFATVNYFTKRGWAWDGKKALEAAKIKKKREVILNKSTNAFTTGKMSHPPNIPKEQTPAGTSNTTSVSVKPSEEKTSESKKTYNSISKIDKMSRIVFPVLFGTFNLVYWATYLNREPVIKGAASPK
Chain of human GABA A receptor α5β3γ2 (α5 subunit) (P28472 26-473 partner): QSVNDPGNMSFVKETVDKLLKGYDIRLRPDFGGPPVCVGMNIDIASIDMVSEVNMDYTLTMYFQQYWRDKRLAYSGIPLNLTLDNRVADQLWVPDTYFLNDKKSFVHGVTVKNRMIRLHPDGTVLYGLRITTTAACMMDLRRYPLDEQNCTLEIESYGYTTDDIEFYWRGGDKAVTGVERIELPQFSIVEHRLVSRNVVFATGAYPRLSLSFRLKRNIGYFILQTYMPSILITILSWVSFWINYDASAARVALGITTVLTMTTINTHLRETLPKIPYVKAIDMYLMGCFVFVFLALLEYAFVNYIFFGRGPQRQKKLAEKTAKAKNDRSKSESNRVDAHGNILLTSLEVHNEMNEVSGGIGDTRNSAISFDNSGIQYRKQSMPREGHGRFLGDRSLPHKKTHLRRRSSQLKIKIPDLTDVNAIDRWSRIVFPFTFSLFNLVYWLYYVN
Chain of human GABA A receptor α5β3γ2 (α5 subunit) (P18507 40-475): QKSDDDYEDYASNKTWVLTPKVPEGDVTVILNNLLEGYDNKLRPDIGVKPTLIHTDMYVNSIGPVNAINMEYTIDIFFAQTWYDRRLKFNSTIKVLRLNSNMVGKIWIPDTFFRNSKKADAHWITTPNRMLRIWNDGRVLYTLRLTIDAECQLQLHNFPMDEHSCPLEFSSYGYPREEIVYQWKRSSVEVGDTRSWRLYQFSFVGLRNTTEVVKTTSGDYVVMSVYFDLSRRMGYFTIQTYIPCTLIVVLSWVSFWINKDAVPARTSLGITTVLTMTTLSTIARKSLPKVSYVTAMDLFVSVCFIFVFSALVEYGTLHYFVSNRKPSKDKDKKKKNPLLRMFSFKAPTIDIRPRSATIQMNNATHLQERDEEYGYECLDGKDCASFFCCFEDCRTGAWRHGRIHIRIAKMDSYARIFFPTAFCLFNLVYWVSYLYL

Ki [nM]	SMILES
34.7	O=C(NC1CCOCC1)c1ccc(OCc2conc2-c2ccc(F)cc2)nn1 [Example 122, 6-[3-(4-Fluoro-phenyl)-isoxazol-4-ylmethoxy]-pyridazine-3-carboxylic acid (tetrahydro-pyran-4-yl)-amide]
31.5	O=C(NC1CC1)c1ccc(OCc2conc2-c2ccccn2)nn1 [Example 124, 6-(3-Pyridin-2-yl-isoxazol-4-ylmethoxy)-pyridazine-3-carboxylic acid cyclopropylamide]
